# “Also recorded” adds a separate entry of the source.
# Key:
# [1] = biological target: T1, purified human thioredoxin (Homo sapiens, UniProt P10599); assay: Thioredoxin activity assay, biochemical (in vitro); settings: 30 min, versus PMX464 and PX-12
# T1 construct: purchased Cayman Chemical Fluorescent Thioredoxin Activity Assay kit #20039
# Method: HCT 116 cells (1×10^6 cells/flask) were treated with DMSO, 10 μM ferroptocide, 50 μM PMX464, or 50 μM PX-12 for 30 min. Cells were harvested by centrifugation, resuspended in the assay buffer and lysed via sonication. For each condition, 20 μg of cell lysate was used to measure the activity thioredoxin activity following manufacturer' protocol (Cayman Chemical, Fluorescent Thioredoxin Activity Assay kit #20039) in a 96-well black-walled plate. For in vitro studies, human thioredoxin (10 μL of 0.2 μM solution) was used in addition to thioredoxin reductase (10 μL of 1.0 μM solution), 1 μl of DMSO, ferroptocide, […], or PX-12 at indicated concentrations, 5 μL of NADPH (diluted according to manufacturer's instructions), and assay buffer to a final volume of 75 μL. The plate was incubated at 37° C. for 30 min followed by immediate addition of 20 μL fluorescent substrate per each well (diluted as instructed in the assay kit). Fluorescence was monitored over 1 hr at 520 nm after excitation at 480 nm in a SpectraMax M3 (Molecular Devices) instrument at 37° C.
# [2] = system: primary cancer cells from patients with metastatic cancers; assay: 72 hr cell viability Alamar Blue assay in primary patient-derived cells; type: cell-based, human; settings: versus cisplatin, 5-FU, etoposide, PAC-1
# Method: Cells were grown at 37° C. under a humidified 5% CO2 atmosphere, in a culture medium consisting of high-glucose (Life Technology) DMEM media for Mia PaCa-2, D54, U87, K7-M2, SK-MEL-5, and 3LL cells or RPMI 1640 for ES-2, HCT 116, MDA-MB-231, A549, T47D, B16-F10, and BT-549 cells or McCoy's 5A media for HT29 cells. All media were supplemented with 10% FBS (Gemini), penicillin (50 IU/ml), streptomycin (50 μg/ml) and glutamine (2 mM) (Cellgro). Primary cells were isolated from pleural effusions of metastatic patients at Carle Foundation Hospital (IRB #15149) following a protocol as described previously (Med. Sci. 2, 70-81, (2014)).
# To a 384-well plate, 40 μL of 1.25× compound dilution or 1.25% DMSO-containing media was added (final volume of 1% DMSO). Concentrations of compounds tested were 100 μM to 100 nM. On each plate at least 3 technical replicates per compound were performed. Next, 10 μL of a 100,000 cells/mL suspension was added to each well, yielding a final concentration of 1,000 cells/well. To three wells in column 2 was added 1 μL of 10 mM doxorubicin (final concentration of 200 μM) as positive control of cell death. Plates were sealed with gas-permeable seals and incubated at 37° C. for 72 h. […] Fluorescence was read on a Molecular Devices SpectraMax 3 (excitation=555 nm, emission=585 nm, emission cutoff=570 nm). […]
# [3] = system: HCT 116 cells; assay: Cellular lipid ROS production (C11-BODIPY); type: cell-based; settings: 10 μM
# Method: (§1) ES-2, HCT 116, and 4T1 cells (1×10^5 cells/mL) were plated in 12-well plates. Cells were pre-treated for 2 hr with 100 μM deferoxamine followed by treatment with DMSO, 10 μM ferroptocide, 10 μM RSL3, or 100 μM TBHP for 1 hr, 1.5 hr and 2 hr respectively. Cells were washed with HBSS and incubated in the dark for 20 min with 5 μM C11-BODIPY probe. Cells were then washed 2× with HBSS and harvested at 1000×g, 3 min. After resuspension in 500 μl HBSS buffer, samples were analyzed with flow cytometry to record ten thousand events per sample in FL1 channel in BD LSR II Flow Cytometer (BD Bioscience). FCS express V6 De Novo software was used to generate histograms.
# [4] = system: ES-2 cells; assay: Cellular lipid ROS production (C11-BODIPY); type: cell-based; settings: 10 μM
# Method: as §1
# [5] = system: HCT 116 cells; assay: Cellular ROS production (carboxy-H2DCFDA); type: cell-based; settings: 1.5 hr
# Method: (§2) ES-2 and HCT 116 cells (3×10^5 cells/mL) were plated in 6-well plates. Cells were treated with DMSO, ferroptocide at the indicated concentrations, Etoposide (100 μM), TBHP (100 μM) for 1 hr and 1.5 hr respectively. Cells were washed with HBSS and incubated in the dark for 25 min with 25 μM carboxy-H2DCFDA probe. Cells were then washed 3× with HBSS and harvested at 1000×g, 3 min. After resuspension in 500 μl HBSS buffer, samples were subjected to flow cytometry to record ten thousand events per sample in FL1 channel in BD LSR II Flow Cytometer (BD Bioscience). FCS express V6 De Novo software was used to generate the histograms.
# [6] = system: ES-2 cells; assay: Cellular ROS production (carboxy-H2DCFDA); type: cell-based; settings: 1 hr
# Method: as §2
# [7] = biological target: T2, GPX4 (Homo sapiens, UniProt P36969); assay: GPX4 LC-MS based activity assay (PCOOH); type: cell-based; settings: 10 μM, 1 hr, ES-2 cells
# T2 construct: endogenous in cells; host or cells: ES-2 cells
# T2 sequence (P36969 whole entry): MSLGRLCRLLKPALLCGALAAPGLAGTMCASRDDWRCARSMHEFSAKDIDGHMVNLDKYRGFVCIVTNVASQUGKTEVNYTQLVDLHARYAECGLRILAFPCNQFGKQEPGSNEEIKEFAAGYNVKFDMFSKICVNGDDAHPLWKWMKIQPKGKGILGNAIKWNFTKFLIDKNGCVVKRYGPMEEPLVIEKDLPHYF
# Method: 1 million ES-2 cells/well, 6 well plate were allowed to attach overnight and then treated with DMSO, 10 μM of each compound: ferroptocide, raptinal, and RSL3 for 1 hr. GPX4 enzymatic activity assay was performed with a GPX4 specific substrate, phosphatidylcholine hydroperoxide (PC—OOH) as described previously with minor modifications (Cell 156, 317-331, (2014)). PCOOH was prepared as reported by Roveri and coworkers (Enzymol. Vol. 233 202-212 (Academic Press, 1994)) but using soybean lipoxidase type I-B (L7395, Milipore Sigma). Cells were washed with PBS and lysed by liquid nitrogen freeze-thaw method in the assay buffer (137 mM NaCl, 2.7 mM KCl, 8 mM Na2HPO4, 2 mM KH2PO4, 1 mM EDTA, 0.1 mM DFO; pH 7.4). Cell lysates were cleared by centrifugation at 14,000 rpm for 10 min at 4° C. Bradford assay was used to determine protein concentration; 200 μg of protein or assay buffer (PCOOH control sample) was mixed with 10 μL PC—OOH in methanol, 5 mM reduced glutathione, and assay buffer to a final reaction volume of 500 μL. The reaction mixture was incubated at 37° C. for 15 mins and extracted with 250 μL chloroform:methanol (2:1) solution. The lipid extract was evaporated under nitrogen and re-dissolved in 100% methanol before injecting into the LC-MS/MS instrument for PCOOH detection.
# [8] = system: 4T1 cells; assay: Cellular lipid ROS production (C11-BODIPY); type: cell-based, murine; settings: 10 μM
# Method: as §1
# T1 sequence (P10599 whole entry): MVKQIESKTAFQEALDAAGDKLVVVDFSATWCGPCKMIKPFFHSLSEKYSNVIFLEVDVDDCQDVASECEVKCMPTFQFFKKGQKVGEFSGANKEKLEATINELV
compound,measurement,setting,value
"C[C@@H]1CC[C@@]23C[C@H](O)C(=O)[C@@]2(O)[C@]1(C)[C@H](OC(=O)CCl)C[C@@H](C1=CCn2c(=O)n(-c4ccccc4)c(=O)n2C1)[C@@H]3C [Compound P18, ferroptocide]","inhibition of purified thioredoxin, dose-response",[1],more potent thioredoxin inhibitor than PMX464 and PX-12
same,killing of primary cancer cells versus chemotherapeutics,[2],kills these cancer cells better than approved and experimental chemotherapeutics
same,lipid ROS,[3],induces lipid ROS
same,lipid ROS,[4],induces lipid ROS
same,ROS production,[5],Dose-dependent ROS production
same,ROS production,[6],Dose-dependent ROS production
same,GPX4 inhibition,[7],did not result in GPX4 inhibition; also recorded: does not cause direct GPX4 inhibition
same,lipid ROS,[8],induces lipid ROS
